According to publication PMC9586930, “Molecular insights into the distinct signaling duration for the peptide-induced PTH1R activation” (Nature Communications, 2022):
Positions count from the first letter of the chain named.

What was measured:
Settings in all cases: for ΔpEC50±SEM: relative to WT, n = 3 in triplicate; for ΔpEC50±SEM / Span±SEM: mean ± SEM; for Span±SEM: window between maximal response (Emax) and vehicle, n = 3
PTH1R Y191A mutant = molecular target: T1, PTH1R Y191A mutant (Homo sapiens, UniProt Q03431, Y191A); assay: cAMP accumulation assay (GloSensor), PTH1R Y191A; type: cell-based
T1 construct: a flag-tag was fused to the N terminal of full-length PTH1R (WT or mutant); expressed in transfected cells; host or cells: HEK293T
T1 sequence (Q03431 27-593 Y191A): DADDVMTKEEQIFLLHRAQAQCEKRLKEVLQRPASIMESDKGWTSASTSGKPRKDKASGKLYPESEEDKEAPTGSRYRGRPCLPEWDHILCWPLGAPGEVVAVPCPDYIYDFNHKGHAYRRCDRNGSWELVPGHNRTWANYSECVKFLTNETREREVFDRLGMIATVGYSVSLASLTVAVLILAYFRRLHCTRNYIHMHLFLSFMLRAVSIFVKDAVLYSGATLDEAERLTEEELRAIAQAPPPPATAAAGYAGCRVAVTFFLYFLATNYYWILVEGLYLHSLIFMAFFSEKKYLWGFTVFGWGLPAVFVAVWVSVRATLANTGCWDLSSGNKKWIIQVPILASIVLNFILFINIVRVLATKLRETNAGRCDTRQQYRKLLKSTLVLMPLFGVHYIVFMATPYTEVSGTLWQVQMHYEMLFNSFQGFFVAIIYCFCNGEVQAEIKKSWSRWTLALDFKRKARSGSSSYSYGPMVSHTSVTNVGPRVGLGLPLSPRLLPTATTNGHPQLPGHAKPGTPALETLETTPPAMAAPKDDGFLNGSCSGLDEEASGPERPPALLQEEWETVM
Method: (§1) Human embryonic kidney 293 T (HEK293T, ATCC: CRL-1573) cells were transfected with a plasmid mixture consisting of pcDNA3.1-flag-PTH1R (WT or mutants) and the cAMP biosensor GloSensor-22F (Promega) at a ratio of 2:1 (see Supplementary Table 7 for a list of primers used in this study). After 24 h, transfected cells were plated onto a 384-well plate, which was treated with cell adherent reagent (Applygen) in advance. After another 12 h, cells were treated with Hank’s balanced salt solution for starvation and then incubated in CO2-independent media containing 4% GloSensor cAMP Reagent (Promega) at a volume of 5 μl per well and incubated for 20 min at RT before measurements for baseline luminescence (Spark Multimode microplate reader, TECAN). Next, test ligands were added at different concentrations from 10^−6 to 10^−13 M before second measurement. Finally, data were normalized to 100% of the maximal PTH (1-34) response for WT PTH1R using a sigmoidal dose-response in GraphPad Prism.
(§2) Statistical analyses were performed on at least three individual datasets and analysed using GraphPad Prism software. Bars represent differences in the calculated agonist potency (pEC50) and maximum agonist response (Emax) for each mutant relative to the WT receptor. Data are mean± s.e.m. from at least three independent experiments, performed in triplicates. ns, not significant, ^nsP > 0.01; ^*P < 0.01; ^**P < 0.001; ^***P < 0.0001 (one-way analysis of variance (ANOVA) followed by Dunnett’s test, compared with the response of the WT). For dose-response experiments, data were normalized and analyzed using nonlinear curve fitting for the log (agonist) versus response (three parameters) curves.

PTH1R L244A mutant = molecular target: T2, PTH1R L244A mutant (Homo sapiens, UniProt Q03431, L244A); assay: cAMP accumulation assay (GloSensor), PTH1R L244A; type: cell-based
T2 construct: a flag-tag was fused to the N terminal of full-length PTH1R (WT or mutant); expressed in transfected cells; host or cells: HEK293T
T2 sequence (Q03431 27-593 L244A): T1 sequence (Q03431 27-593 Y191A) with A165Y, L218A
Method: as §1, §2

PTH1R F424A mutant = assay: cAMP accumulation assay (GloSensor), PTH1R F424A; type: cell-based, human
Method: as §1, with “After” for “Human embryonic kidney 293 T (HEK293T, ATCC: CRL-1573) cells were transfected with a plasmid mixture consisting of pcDNA3.1-flag-PTH1R (WT or mutants) and the cAMP biosensor GloSensor-22F (Promega) at a ratio of 2:1 (see Supplementary Table 7 for a list of primers used in this study). After”
as §2, with “Bars represent differences in the calculated agonist potency (pEC50) and maximum agonist response (Emax) for each mutant relative to the WT receptor.” left out

| span (from the WT) (PTH1R Y191A mutant; PTH1R Y1911.43A, replicate 1) | ΔpEC50 (from the WT) (PTH1R Y191A mutant; PTH1R Y1911.43A, replicate 1) | span (from the WT) (PTH1R Y191A mutant; PTH1R Y1911.43A, replicate 2) | ΔpEC50 (from the WT) (PTH1R Y191A mutant; PTH1R Y1911.43A, replicate 2) | span (from the WT) (PTH1R Y191A mutant; PTH1R Y1911.43A, replicate 3) | ΔpEC50 (from the WT) (PTH1R Y191A mutant; PTH1R Y1911.43A, replicate 3) | ΔpEC50±SEM (PTH1R Y191A mutant) | ΔpEC50 (from the WT) (PTH1R Y191A mutant; replicate 1) | ΔpEC50 (from the WT) (PTH1R Y191A mutant; replicate 2) | ΔpEC50 (from the WT) (PTH1R Y191A mutant; replicate 3) | Span±SEM (PTH1R Y191A mutant) | span (from the WT) (PTH1R L244A mutant; PTH1R L2442.71A, replicate 1) | ΔpEC50 (from the WT) (PTH1R L244A mutant; PTH1R L2442.71A, replicate 1) | span (from the WT) (PTH1R L244A mutant; PTH1R L2442.71A, replicate 2) | ΔpEC50 (from the WT) (PTH1R L244A mutant; PTH1R L2442.71A, replicate 2) | span (from the WT) (PTH1R L244A mutant; PTH1R L2442.71A, replicate 3) | ΔpEC50 (from the WT) (PTH1R L244A mutant; PTH1R L2442.71A, replicate 3) | ΔpEC50±SEM (PTH1R L244A mutant) | ΔpEC50 (from the WT) (PTH1R L244A mutant; replicate 1) | ΔpEC50 (from the WT) (PTH1R L244A mutant; replicate 2) | Substance | also measured |
| --- | --- | --- | --- | --- | --- | --- | --- | --- | --- | --- | --- | --- | --- | --- | --- | --- | --- | --- | --- | --- | --- |
| 133.3 | -0.163 | 153.3 | -0.013 | 159.2 | -0.095 | -0.09±0.04 | -0.163 | -0.013 | -0.095 | 148.60±7.84 | 131 | -0.382 | 190.8 | -0.346 | 179.4 | -0.43 | -0.39±0.02 | -0.382 | -0.346 | H-AVAEIQLMHQRAKWIQDARRRAFLHKLIAEIHTAEI-OH [LA-PTH, long-acting PTH analog, modified PTH/PTHrP hybrid] | ΔpEC50 (from the WT) (PTH1R L244A mutant; replicate 3): -0.43; Span±SEM (PTH1R L244A mutant): 167.07±18.33; span (from the WT) (PTH1R F424A mutant; PTH1R F4246.56A, replicate 1): 141.3; ΔpEC50 (from the WT) (PTH1R F424A mutant; PTH1R F4246.56A, replicate 1): -1.04; span (from the WT) (PTH1R F424A mutant; PTH1R F4246.56A, replicate 2): 117.4; ΔpEC50 (from the WT) (PTH1R F424A mutant; PTH1R F4246.56A, replicate 2): -1.083; span (from the WT) (PTH1R F424A mutant; PTH1R F4246.56A, replicate 3): 173.2; ΔpEC50 (from the WT) (PTH1R F424A mutant; PTH1R F4246.56A, replicate 3): -1.36; ΔpEC50±SEM (PTH1R F424A mutant): -1.16±0.1; ΔpEC50 (from the WT) (PTH1R F424A mutant; replicate 1): -1.04; ΔpEC50 (from the WT) (PTH1R F424A mutant; replicate 2): -1.083; ΔpEC50 (from the WT) (PTH1R F424A mutant; replicate 3): -1.36 |
| 132.4 | -0.995 | 179.6 | -0.805 | 268.7 | -0.706 | -0.84±0.08 | -0.995 | -0.805 | -0.706 | 164.77±14.05 | 138.7 | -0.566 | 168.7 | -0.398 | 186.9 | -0.464 | -0.48±0.05 | -0.566 | -0.398 | H-SVSEIQLMHNLGKHLNSMERVEWLRKKLQDVHNF-OH [PTH, Teriparatide, human PTH 1-34, long-acting peptide agonist of PTH1R] | ΔpEC50 (from the WT) (PTH1R L244A mutant; replicate 3): -0.464; Span±SEM (PTH1R L244A mutant): 150.17±18.04; span (from the WT) (PTH1R F424A mutant; PTH1R F4246.56A, replicate 1): 181.9; ΔpEC50 (from the WT) (PTH1R F424A mutant; PTH1R F4246.56A, replicate 1): -1.332; span (from the WT) (PTH1R F424A mutant; PTH1R F4246.56A, replicate 2): 192.6; ΔpEC50 (from the WT) (PTH1R F424A mutant; PTH1R F4246.56A, replicate 2): -1.492; span (from the WT) (PTH1R F424A mutant; PTH1R F4246.56A, replicate 3): 166.2; ΔpEC50 (from the WT) (PTH1R F424A mutant; PTH1R F4246.56A, replicate 3): -1.466; ΔpEC50±SEM (PTH1R F424A mutant): -1.43±0.05; ΔpEC50 (from the WT) (PTH1R F424A mutant; replicate 1): -1.332; ΔpEC50 (from the WT) (PTH1R F424A mutant; replicate 2): -1.492; ΔpEC50 (from the WT) (PTH1R F424A mutant; replicate 3): -1.466; Span±SEM (PTH1R F424A mutant): 143.97±16.16 |

| Substance | span (from the WT) (PTH1R Y191A mutant; PTH1R Y1911.43A, replicate 1) | ΔpEC50 (from the WT) (PTH1R Y191A mutant; PTH1R Y1911.43A, replicate 1) | span (from the WT) (PTH1R Y191A mutant; PTH1R Y1911.43A, replicate 2) | ΔpEC50 (from the WT) (PTH1R Y191A mutant; PTH1R Y1911.43A, replicate 2) | span (from the WT) (PTH1R Y191A mutant; PTH1R Y1911.43A, replicate 3) | ΔpEC50 (from the WT) (PTH1R Y191A mutant; PTH1R Y1911.43A, replicate 3) | ΔpEC50±SEM (PTH1R Y191A mutant) | ΔpEC50 (from the WT) (PTH1R Y191A mutant; replicate 1) | ΔpEC50 (from the WT) (PTH1R Y191A mutant; replicate 2) | ΔpEC50 (from the WT) (PTH1R Y191A mutant; replicate 3) | Span±SEM (PTH1R Y191A mutant) | span (from the WT) (PTH1R L244A mutant; PTH1R L2442.71A, replicate 1) | ΔpEC50 (from the WT) (PTH1R L244A mutant; PTH1R L2442.71A, replicate 1) | span (from the WT) (PTH1R L244A mutant; PTH1R L2442.71A, replicate 2) | ΔpEC50 (from the WT) (PTH1R L244A mutant; PTH1R L2442.71A, replicate 2) | span (from the WT) (PTH1R L244A mutant; PTH1R L2442.71A, replicate 3) | ΔpEC50 (from the WT) (PTH1R L244A mutant; PTH1R L2442.71A, replicate 3) | ΔpEC50±SEM (PTH1R L244A mutant) | ΔpEC50 (from the WT) (PTH1R L244A mutant; replicate 1) | ΔpEC50 (from the WT) (PTH1R L244A mutant; replicate 2) | also measured |
| --- | --- | --- | --- | --- | --- | --- | --- | --- | --- | --- | --- | --- | --- | --- | --- | --- | --- | --- | --- | --- | --- |
| H-AVSEHQLLHDKGKSIQDLRRRELLEKLL-{Aib}-KLHTA-NH2 [ABL, Abaloparatide, an analog of PTHrP, short-acting PTH1R agonist] | 197.4 | -2.59 | 251.3 | -2.509 | 242 | -2.365 | -2.49±0.07 | -2.59 | -2.509 | -2.365 | 230.23±16.63 | 180 | -2.593 | 247.7 | -2.562 | 245.8 | -2.458 | -2.54±0.04 | -2.593 | -2.562 | ΔpEC50 (from the WT) (PTH1R L244A mutant; replicate 3): -2.458; Span±SEM (PTH1R L244A mutant): 224.50±22.26; span (from the WT) (PTH1R F424A mutant; PTH1R F4246.56A, replicate 1): 148.5; ΔpEC50 (from the WT) (PTH1R F424A mutant; PTH1R F4246.56A, replicate 1): -1.943; span (from the WT) (PTH1R F424A mutant; PTH1R F4246.56A, replicate 2): 140.3; ΔpEC50 (from the WT) (PTH1R F424A mutant; PTH1R F4246.56A, replicate 2): -2.006; span (from the WT) (PTH1R F424A mutant; PTH1R F4246.56A, replicate 3): 170.8; ΔpEC50 (from the WT) (PTH1R F424A mutant; PTH1R F4246.56A, replicate 3): -2.077; ΔpEC50±SEM (PTH1R F424A mutant): -2.01±0.04; ΔpEC50 (from the WT) (PTH1R F424A mutant; replicate 1): -1.943; ΔpEC50 (from the WT) (PTH1R F424A mutant; replicate 2): -2.006; ΔpEC50 (from the WT) (PTH1R F424A mutant; replicate 3): -2.077; Span±SEM (PTH1R F424A mutant): 153.20±9.11 |
